Reference: patent US6890919B2, “Atypical antipsychotic agents having low affinity for the D2 receptor” (priority 2001, dated 2005)
Where a name gives a salt, the structure may show the parent alone.

Tests used:
rats [1] = experiment: Catalepsy grid-test (motor side-effects); type: in vivo; details: for motor-side-effects (catalepsy): sc, doses 1-40 mg/kg
Protocol: (§1) To document the fact that the compounds cross the blood brain barrier, occupancy at the dopamine D2 receptors using in-vivo occupancy measures was examined in rats. The test compound was injected subcutaneously followed 30 minutes later by an intravenous injection of ^3H-raclopride. The animals were sacrificed 1 hour after drug administration. In animals combining occupancy and catalepsy, rats were tested for catalepsy 10 minutes before sacrifice. Animals were sacrificed by decapitation. Striata and cerebella were rapidly dissected, processed and analyzed as described by Kapur et al. (2000b) Compounds which crossed the blood brain barrier and gave predictable dose-response relationships were then tested to see if they gave catalepsy. Catalepsy is the time-honoured animal model to predict the propensity of compounds to give rise to extrapyramidal side-effects in humans. Catalepsy was measured using a grid-test by a rater blind to the treatment-assignment. The time that animals remained immobile was used as an index of catalepsy by transforming raw-scores into catalepsy scores, with a score of 1 as questionable catalepsy and scores of 2-5 reflecting severity of catalepsy (Ahlenius S et al. 1986).

dopamine D2 receptor = dopamine D2 receptor (Homo sapiens, UniProt P14416); experiment: Binding affinity for dopamine D2 receptor, 3H-raclopride as ligand (Seeman 1993)
dopamine D2 receptor, sequence (P14416 whole entry, species assumed): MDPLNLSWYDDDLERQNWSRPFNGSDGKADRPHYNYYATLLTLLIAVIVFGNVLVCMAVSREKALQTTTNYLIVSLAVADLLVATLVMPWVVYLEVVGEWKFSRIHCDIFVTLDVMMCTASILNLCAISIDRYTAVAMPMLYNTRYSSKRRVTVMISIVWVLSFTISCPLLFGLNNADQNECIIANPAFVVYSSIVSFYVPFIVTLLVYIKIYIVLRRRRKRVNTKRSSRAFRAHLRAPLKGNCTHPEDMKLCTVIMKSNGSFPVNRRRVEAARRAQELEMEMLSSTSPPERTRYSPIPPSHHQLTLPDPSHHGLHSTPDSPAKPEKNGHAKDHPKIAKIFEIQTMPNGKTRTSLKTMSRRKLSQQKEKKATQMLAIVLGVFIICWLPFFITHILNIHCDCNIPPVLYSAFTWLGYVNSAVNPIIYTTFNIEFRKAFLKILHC
Excerpt: As will be appreciated by those skilled in the art, Ki values depend on the method of measurement, pH, radiolabeling technique, tissue type, temperature and type of wash used.

FOS protein = experiment: FOS immunohistochemistry; type: in vivo; details: rats, two hours after injection; for FOS protein induction in the nucleus accumbens: shell of nucleus accumbens
Protocol: In particular, all antipsychotics induce FOS in the nucleus accumbens regions while those likely to give rise to motor side-effects also induce FOS in the dorsolateral striatum (Robertson et al. 1994). For examining the distribution of FOS protein by the test compound, the test compound was injected into rats and two hours later, the animals were deeply anaesthetized with sodium phenobarbitol (100 mg/kg i.p.) and perfused transcardially, the brains removed and post-fixed. Immunostaining was performed on free-floating forty-micron sections with a rabbit-raised polyclonal primary anti-FOS antiserum (diluted 1:250 and incubated 48 hours at 4° C.) (4-17 aminoacids of human Fos; Oncogene Research Products, Cambridge, Mass., USA). Exposure to a biotinylated goat anti-rabbit secondary antibody (1:600, Vector Laboratories, Burlingame, Calif., USA) followed by incubation with horseradish peroxidase avidin-biotin complex (Vector Laboratories, Vector Laboratories, Burlingame, Calif., USA) was used to visualize the FOS staining. Fos-immunoreactive nuclei were counted within 400×400 μm grid at a magnification of 100× in the shell of nucleus accumbens and dorsolateral striatum.

dopamine D2 receptors = biological target: T1, dopamine D2 receptors (Rattus norvegicus, UniProt P61169); experiment: In-vivo D2 receptor occupancy with 3H-raclopride; details: rats; for ED50: rat, sc in acidified saline; for D2 occupancy: dose 1-40 mg/kg/sc in acidified saline, sacrifice 1 hour after drug
T1 construct: Striata and cerebella were rapidly dissected, processed and analyzed as described by Kapur et al. (2000b); from tissue; host or cells: rat brain in vivo (striatum; cerebellum also dissected)
T1 sequence (P61169 whole entry): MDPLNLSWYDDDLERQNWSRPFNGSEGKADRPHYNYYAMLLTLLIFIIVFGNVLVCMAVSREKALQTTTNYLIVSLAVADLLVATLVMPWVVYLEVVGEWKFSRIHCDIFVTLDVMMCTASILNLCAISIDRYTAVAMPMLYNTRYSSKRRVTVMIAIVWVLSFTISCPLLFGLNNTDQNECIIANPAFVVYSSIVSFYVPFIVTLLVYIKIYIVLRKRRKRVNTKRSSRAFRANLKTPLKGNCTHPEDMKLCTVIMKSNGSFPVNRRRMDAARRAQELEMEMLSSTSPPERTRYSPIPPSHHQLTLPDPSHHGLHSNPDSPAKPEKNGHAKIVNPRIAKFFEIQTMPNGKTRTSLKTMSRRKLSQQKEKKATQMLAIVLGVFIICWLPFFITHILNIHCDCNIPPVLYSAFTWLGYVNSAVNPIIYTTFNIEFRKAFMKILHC
Protocol: as §1

rats [2] = experiment: Conditioned avoidance response (CAR), two-way active avoidance shuttlebox; type: in vivo
Protocol: Therefore the new compounds were tested for activity in this model. For conditioned avoidance-response, rats were trained and tested in a computer assisted two-way active avoidance (shuttlebox), with an 80 dB white-noise as a conditioned stimulus, followed ten seconds later by a 0.6 mA shock as the unconditioned stimulus. Details of the procedure have been described elsewhere (Wadenberg M L et al. 2000).

| Compound | melting point | Ki (dopamine D2 receptor) [nM] | further results |
| --- | --- | --- | --- |
| CC(C)N1CCN(C2=Nc3cc(C(F)(F)F)ccc3Oc3ccccc32)CC1 (as salt: HCl) [Example 4, 8-Trifluoromethyl-11-(4-isopropylpiperazin-1-yl)-dibenzo[b,f][1,4]oxazepine.HCl] | 270 °C (dec.) | – | – |
| CCCCN1CCN(C2=Nc3cc(C(F)(F)F)ccc3Oc3ccccc32)CC1 (as salt: HCl) [Example 5, 8-Trifluoromethyl-11-(4-butylpiperazin-1-yl)-dibenzo[b,f][1,4]oxazepine.HCl] | 240 °C (dec.) | – | – |
| CN1CCN(C2=Nc3cc(Cl)ccc3Nc3ccccc32)CC1 [Clozapine, reference compound] | – | – | catalepsy (rats [1]; doses up to 20 mg/kg/sc): did not give rise to catalepsy |
| CCN1CCN(C2=Nc3cc(C(F)(F)F)ccc3Oc3ccccc32)CC1 [Example 1, 8-Trifluoromethyl-11-(4-ethylpiperazin-1-yl)-dibenzo[b,f][1,4]oxazepine] | 76 to 77 °C | 258 | – |
| OCCN1CCN(C2=Nc3cc(C(F)(F)F)ccc3Oc3ccccc32)CC1 [Example 2, 8-Trifluoromethyl-11-(4-(2′-hydroxyethyl)piperazin-1-yl)-dibenzo[b,f][1,4]oxazepine] | 110 to 111 °C | 414 | – |
| CC(C)N1CCN(C2=Nc3cc(C(F)(F)F)ccc3Oc3ccccc32)CC1 [Example 4, 8-Trifluoromethyl-11-(4-isopropylpiperazin-1-yl)-dibenzo[b,f][1,4]oxazepine.HCl] | – | 215 | – |
| CCCCN1CCN(C2=Nc3cc(C(F)(F)F)ccc3Oc3ccccc32)CC1 [Example 5, 8-Trifluoromethyl-11-(4-butylpiperazin-1-yl)-dibenzo[b,f][1,4]oxazepine.HCl] | – | 250 | – |
| CC(C)N1CCN(C2=Nc3cc(Cl)ccc3Oc3ccccc32)CC1 [Example 9, 8-Chloro-11-(4-isopropylpiperazin-1-yl)-dibenzo[b,f][1,4]oxazepine] | 55 to 56 °C | 150 | – |
| O=C(CCCN1CCC(O)(c2ccc(Cl)cc2)CC1)c1ccc(F)cc1 [haloperidol, reference compound] | – | – | FOS protein induction in the dorsolateral striatum (FOS protein): resulted in FOS in the dorsolateral striatum; FOS protein induction in the nucleus accumbens (FOS protein): robust FOS induction; inhibition of avoidance (rats [2]; >0.05 mg/kg/sc, without catalepsy or escape deficits): robust inhibition of avoidance |

Now from value to molecule, other results behind:

| melting point | Ki (dopamine D2 receptor) [nM] | Compound | further results |
| --- | --- | --- | --- |
| – | 42 | CCN1CCN(C2=Nc3cc(Cl)ccc3Oc3ccccc32)CC1 [Example 6, 8-Chloro-11-(4-ethylpiperazin-1-yl)-dibenzo[b,F][1,4]oxazepine] | FOS protein induction in the dorsolateral striatum (FOS protein): no induction; FOS protein induction in the nucleus accumbens (FOS protein): robust induction; ED50 (dopamine D2 receptors): ~5 mg/kg; D2 occupancy (dopamine D2 receptors): 5-81%; motor-side-effects (catalepsy) (rats [1]): No animals showed any evidence of motor-side-effects; inhibition at 10 mg/kg (rats [2]; Rattus norvegicus, 10 mg/kg/sc): > 50% |
| 149 to 150 °C | 108 | OCCN1CCN(C2=Nc3cc(Cl)ccc3Oc3ccccc32)CC1 [Example 7, 8-Chloro-11-(4-(2′-hydroxyethyl)piperazin-1-yl)-dibenzo[b,f][1,4]oxazepine] | ED50 (dopamine D2 receptors): 10 mg/kg; D2 occupancy (dopamine D2 receptors): 22-75%; motor-side-effects (catalepsy) (rats [1]): No animals showed any evidence of motor-side-effects; inhibition at 20 mg/kg (rats [2]; Rattus norvegicus, 20 mg/kg/sc): > 50% |
| 90 to 91 °C | 23 | CCCN1CCN(C2=Nc3cc(Cl)ccc3Oc3ccccc32)CC1 [Example 8, 8-Chloro-11-(4-propylpiperazin-1-yl)-dibenzo[b,f][1,4]oxazepine] | – |
| 97 to 98 °C | 28 | CCCCN1CCN(C2=Nc3cc(Cl)ccc3Oc3ccccc32)CC1 [Example 10, 8-Chloro-11-(4-butylpiperazin-1-yl)-dibenzo[b,f][1,4]oxazepine] | – |
| 100 to 101 °C | 63 | CCN1CCN(C2=Nc3cc(Cl)ccc3Sc3ccccc32)CC1 [Example 12, 8-Chloro-11-(4-ethylpiperazin-1-yl)-dibenzo[b,f][1,4]thiazepine] | – |
| 110 to 111 °C | 88 | OCCN1CCN(C2=Nc3cc(Cl)ccc3Sc3ccccc32)CC1 [Example 13, 8-Chloro-11-(4-(2′-hydroxyethyl)piperazin-1-yl)-dibenzo[b,f][1,4]thiazepine] | – |
| – | 58 | CC(C)N1CCN(C2=Nc3cc(Cl)ccc3Sc3ccccc32)CC1 [Example 15, 8-Chloro-11-(4-isopropylpiperazin-1-yl)-dibenzo[b,f][1,4]thiazepine.HCl] | – |
